The source of these data is paper PMC5684143, “New melanocortin-like peptide of E. coli can suppress inflammation via the mammalian melanocortin-1 receptor (MC1R): possible endocrine-like function for microbes of the gut” (NPJ Biofilms and Microbiomes, 2017).

In one experiment the test system is NF-kappa B. Nature of the experiment: NF-kappa-B activity (electrophoretic mobility shift assay) in LPS-treated RAW 264.7 cells. The experiment is classed as cell-based, murine. Conditions: LPS 100 ng/ml; peptide 10^-8 M and 10^-6 M; 2 hours; EMSA; two separate experiments. Here is the method: Nuclear extracts were prepared from 1 × 10^6 treated cells using the NE-PER nuclear extraction reagents (Pierce). DNA was biotin labeled using the biotin 3ʹ-end-labeling kit (Pierce) in a 50-µl reaction buffer and 5 pmol of double-stranded NF-kappa-B oligonucleotide (5ʹ-[…]-3ʹ and 3ʹ-[…]-5ʹ, Promega). Electrophoretic mobility shift assays for NF-κB was performed using the Lightshift Chemiluminescent Electrophoretic Mobility Shift Assay kit (Pierce) following the manufacturer’s protocol. Densitometric values for the active transcription factors were obtained using GS-800 Calibrated Densitometer Software (Biorad).[36]
RAW 264.7 cells ([…]) were incubated with LPS (100 ng/ml) with or without MECO-1 or alpha-MSH at 10^-8 M and 10^-6 M for 2 hours. Nuclear extracts were mixed with biotin-labeled oligonucleotides containing binding sites for NF-kappa B and then run on a gel, 4-20% Ready gel TBE, in an electrophoretic mobility shift assay. Data represent mean +/- SEM of two separate experiments.

The next experiment has as its system Balb/C mice. Briefly: Cecal ligation and puncture (CLP) polymicrobial sepsis, survival (protocol A). The experiment is classed as in vivo. Here is the method:
In vivo studies were performed in accordance with National Institutes of Health guidelines and with the approval of the North Shore-Long Island Jewish Health System’s Institutional Animal Care and Use Committee (IACUC). In mice, polymicrobial sepsis was induced by surgical ligation and perforation of the cecum, a widely used technique known as CLP. Briefly, male BALB/c mice (7–8 weeks old, 20–25 g) were anesthetized with a mixture of ketamine (100 mg/kg) and xylazine (8 mg/kg) intramuscularly, and a 15 mm midline incision was made to expose the cecum. After ligation of the cecum with a 6.0 silk suture below the junction of the ileo–cecal valve, the ligated cecal stump was perforated once with a 22-gauge needle. […] Survival was monitored twice daily for 2 weeks, at which time survivors were killed (CO2 asphyxia). […] Survival was monitored twice daily after surgery. […]
Kaplan–Meier analysis was used to determine statistical significance of the differences in survival of mice. p ≦ 0.05 was considered significant. Values in the figures were expressed as mean(±)S.E.M. of two or three independent experiments, where each experimental point was derived from duplicates or triplicates. […]
Fig. 6 MECO-1 rescues mice from lethal sepsis. a Endotoxin. […] Survival was monitored daily for 2 weeks. […] Animals were monitored for survival for 14 days. […]

Turning to “alpha-melanocyte-stimulating hormone [alpha-MSH]”, the “rise in NF-kB activity” value in the experiment on NF-kappa B is “active in attenuating”. In addition, the “survival at day 14 after CLP” value in the experiment on Balb/C mice (5 mg/kg (high dose) i.p. twice daily, six doses starting 24 h post-surgery, n = 10, saline 15%) is given as “around 50%”. For the same substance, in the experiment on Balb/C mice (three experiments pooled, untreated 23% (9 of 39), alpha-MSH 15 of 22, MECO-1 42 of 64), the “overall survival after CLP polymicrobial sepsis” value was determined as 68%.
